Results as given in patent publication US7405205B2, “Antitumor antisense sequences directed against R1 and R2 components of ribonucleotide reductase” (Lorus Therapeutics Inc., priority 1996, dated 2008).

Experiments:
[1] = tested on: RP3/ASR2 cells (RP3 with R2 antisense vector); test: Drug sensitivity by relative colony forming efficiency; format: cell-based, mouse
[2] = tested on: N/SH cells (NIH-3T3, empty vector); test: as above; format: cell-based, mouse
[3] = tested on: N/R2+ASR2 cells (NIH-3T3, R2 and R2 antisense vectors); test: as above; format: cell-based, mouse
[4] = tested on: SC2 hydroxyurea resistant mouse L cells; test: as above; format: cell-based
HeLa S3 cells = test: Sensitisation to PALA and MTX by antisense, relative colony forming efficiency; format: cell-based, human; conditions: PALA 20 μM, without AS-II-2229B-20
Description: (§1) Drug Selections: Cells ranging in numbers from 500 to 1-2×10^5 were added to 100 mm tissue culture plates in growth medium containing 10% dialyzed fetal bovine serum, and in the absence or presence of drug [Huang et al., 1995a; Choy et al., 1988]. The culture medium was replaced with fresh medium every week for two to three weeks. Surviving cells were visualized by methylene blue staining, and colonies of about 50 cells or more were scored [Huang et al., 1995a]. The relative colony forming efficiency was defined as the ability to produce colonies in the presence of a drug divided by that ability in the absence of drug.
(§2) Colony forming efficiency was determined as previously reported [Huang and Wright, 1994]. The cells were cultured for 24 hours at 37° C. in growth medium with 10% fetal bovine serum. The cells were washed in 5 ml phosphate buffered saline, pH 7.2, once prior to lipofectin+/−oligonucleotide treatment.
(§3) The oligonucleotides being tested were added to cell cultures in the presence of 2.5 μg of DOTMA/DOPE (Lipofectin; Life Technologies, Inc.) for four hours. The oligonucleotide was tested at 0.2 μM unless otherwise indicated. Controls were the cultures treated with lipofectin but without the oligonucleotide. After 4 hours the medium containing the oligonucleotide was removed and washed with 5 ml of growth medium. The cells were then cultured in growth medium containing 10% fetal bovine serum for seven to ten days. Surviving cells were visualized by methylene blue staining, and colonies were scored. In some experiments cell aliquotes were removed from the culture and viability was determined using the trypan blue exclusion test [Phillips, 1973]. Results were analyzed as percent of surviving cells compared to control cells.
(§4) Based on Example 2, treatment of human tumor cells with very low concentrations of short antisense sequences was tested to determine if these constructs could sensitize the tumor cells to inhibitory effects of other chemotherapeutic drugs. […] These observations indicate that antisense compounds targeting the R2 message can act synergistically with well known chemotherapeutic agents.

HeLa 1 mM cells = test: as above; format: cell-based, human; conditions: without AS-II-2229B-20
Description: as §1, §2, §3, §4

[5] = tested on: B3/mR2 cells (BALB/c 3T3, R2 expression vector); test: Drug sensitivity by relative colony forming efficiency; format: cell-based, mouse
[6] = tested on: N/R2-4 cells (NIH-3T3, R2 expression vector); test: as above; format: cell-based, mouse
[7] = tested on: RP3/SH cells (10T½, H-ras and mutant p53); test: as above; format: cell-based, mouse
[8] = tested on: wild type (W.T.) mouse L cells; test: as above; format: cell-based
[9] = tested on: H2 (H-2) hydroxyurea resistant mouse L cells; test: as above; format: cell-based
[10] = tested on: H4 (H-4) hydroxyurea resistant mouse L cells; test: as above; format: cell-based
[11] = tested on: B3/R2c2 cells (clone of B3/mR2); test: as above; format: cell-based, mouse
[12] = tested on: B3/SH cells (BALB/c 3T3, empty vector); test: as above; format: cell-based, mouse
[13] = tested on: LHF hydroxyurea resistant mouse L cells; test: as above; format: cell-based
[14] = tested on: RP6/SH cells (10T½, H-ras and mutant p53); test: as above; format: cell-based, mouse
[15] = tested on: RP6/ASR2 cells (RP6 with R2 antisense vector); test: as above; format: cell-based, mouse

For `O=C(O)C[C@H](NC(=O)CP(=O)(O)O)C(=O)O` [PALA, N-(phosphonacetyl)-L-aspartate], the “Relative Colony Forming Efficiencies” value ([1]; PALA 10 μM) was 1183 ± 384 × 10^4, the “Relative Colony Forming Efficiencies” value ([1]; PALA 20 μM) was 86.1 ± 32.9 × 10^4 and the “Relative Colony Forming Efficiencies” value ([1]; PALA 30 μM) was 19.5 ± 4.7 × 10^4. For the same compound, the “Relative Colony Forming Efficiencies” value ([1]; PALA 40 μM) was 4.7 ± 0.6 × 10^4, the “Relative Colony Forming Efficiencies” value ([1]; PALA 50 μM) was 2.1 ± 0.8 × 10^4 and the “Relative Colony Forming Efficiencies” value ([1]; PALA 60 μM) was 0.3 ± 0.2 × 10^4. The “Relative Colony Forming Efficiencies” value ([2]; PALA 10 μM) was 5.28 ± 1.5 × 10^4, the “Relative Colony Forming Efficiencies” value ([2]; PALA 15 μM) was 5.83 ± 2.7 × 10^4 and the “Relative Colony Forming Efficiencies” value ([2]; PALA 20 μM) was 0.30 ± 0.1 × 10^4. For the same compound, the “Relative Colony Forming Efficiencies” value ([2]; PALA 25 μM) was 0.53 ± 0.3 × 10^4, the “Relative Colony Forming Efficiencies” value ([2]; PALA 30 μM) was 0.48 ± 0.08 × 10^4 and the “Relative Colony Forming Efficiencies” value ([2]; PALA 40 μM) was 0.27 ± 0.2 × 10^4. The “Relative Colony Forming Efficiencies” value ([3]; PALA 10 μM) was 1.81 ± 0.8 × 10^4, the “Relative Colony Forming Efficiencies” value ([3]; PALA 15 μM) was 0.58 ± 0.3 × 10^4 and the “Relative Colony Forming Efficiencies” value ([3]; PALA 20 μM) was 0.04 ± 0.04 × 10^4. For the same compound, the “Relative Colony Forming Efficiencies” value ([3]; PALA 25 μM) was 0.04 ± 0.04 × 10^4, the “Relative Colony Forming Efficiencies” value ([3]; PALA 30 μM) was 0.12 ± 0.12 × 10^4 and the “Relative Colony Forming Efficiencies” value ([3]; PALA 40 μM) was 0.04 ± 0.04 × 10^4. The “Relative Colony Forming Efficiencies” value ([4]; PALA 20 μM) was 850.1 ± 325.2 × 10^4, the “Relative Colony Forming Efficiencies” value ([4]; PALA 30 μM) was 187.6 ± 46.4 × 10^4 and the “Relative Colony Forming Efficiencies” value ([4]; PALA 40 μM) was 37.5 ± 8.7 × 10^4. The “Relative Colony Forming Efficiencies” value ([4]; PALA 50 μM) was 47.5 ± 35.8 × 10^4, the “Relative Colony Forming Efficiencies” value ([4]; PALA 60 μM) was 17.6 ± 1.2 × 10^4 and the “Relative colony Forming Efficiency” value (HeLa S3 cells) was 350 ± 50. For the same compound, the “Relative colony Forming Efficiency” value (HeLa 1 mM cells; PALA 20 μM) was 377 ± 21, the “Relative colony Forming Efficiency” value (HeLa 1 mM cells; PALA 30 μM) was 311 ± 9.5 and the “Relative Colony Forming Efficiencies” value ([5]; PALA 10 μM) was 965.0 ± 529.7 × 10^4. The “Relative Colony Forming Efficiencies” value ([5]; PALA 20 μM) was 120.1 ± 28.4 × 10^4, the “Relative Colony Forming Efficiencies” value ([5]; PALA 40 μM) was 25.0 ± 4.6 × 10^4 and the “Relative Colony Forming Efficiencies” value ([5]; PALA 50 μM) was 27.6 ± 8.9 × 10^4. For the same compound, the “Relative Colony Forming Efficiencies” value ([5]; PALA 60 μM) was 25.0 ± 6.4 × 10^4, the “Relative Colony Forming Efficiencies” value ([5]; PALA 80 μM) was 27.1 ± 6.75 × 10^4 and the “Relative Colony Forming Efficiencies” value ([6]; PALA 10 μM) was 6.22 ± 3.3 × 10^4. For the same compound, the “Relative Colony Forming Efficiencies” value ([6]; PALA 15 μM) was 10.0 ± 5.5 × 10^4, the “Relative Colony Forming Efficiencies” value ([6]; PALA 20 μM) was 1.71 ± 1.2 × 10^4 and the “Relative Colony Forming Efficiencies” value ([6]; PALA 25 μM) was 0.8 ± 0.7 × 10^4. For the same compound, the “Relative Colony Forming Efficiencies” value ([6]; PALA 30 μM) was 1.03 ± 0.07 × 10^4, the “Relative Colony Forming Efficiencies” value ([6]; PALA 40 μM) was 0.14 ± 0.08 × 10^4 and the “Relative Colony Forming Efficiencies” value ([7]; PALA 10 μM) was 2569 ± 338 × 10^4. The “Relative Colony Forming Efficiencies” value ([7]; PALA 20 μM) was 123.4 ± 19.3 × 10^4, the “Relative Colony Forming Efficiencies” value ([7]; PALA 30 μM) was 45.2 ± 7.8 × 10^4 and the “Relative Colony Forming Efficiencies” value ([7]; PALA 40 μM) was 15.0 ± 4.9 × 10^4. The “Relative Colony Forming Efficiencies” value ([7]; PALA 50 μM) was 9.3 ± 3.6 × 10^4, the “Relative Colony Forming Efficiencies” value ([7]; PALA 60 μM) was 3.9 ± 1.6 × 10^4 and the “Relative Colony Forming Efficiencies” value ([8]; PALA 20 μM) was 172.3 ± 126.3 × 10^4. The “Relative Colony Forming Efficiencies” value ([8]; PALA 30 μM) was 50.3 ± 20.5 × 10^4, the “Relative Colony Forming Efficiencies” value ([8]; PALA 40 μM) was 15.0 ± 7.0 × 10^4 and the “Relative Colony Forming Efficiencies” value ([8]; PALA 50 μM) was 3.6 ± 1.1 × 10^4. The “Relative Colony Forming Efficiencies” value ([8]; PALA 60 μM) was 1.3 ± 0.4 × 10^4, the “Relative Colony Forming Efficiencies” value ([9]; PALA 20 μM) was 406.7 ± 202.2 × 10^4 and the “Relative Colony Forming Efficiencies” value ([9]; PALA 30 μM) was 39.4 ± 16.4 × 10^4. The “Relative Colony Forming Efficiencies” value ([9]; PALA 40 μM) was 23.3 ± 10.4 × 10^4, the “Relative Colony Forming Efficiencies” value ([9]; PALA 50 μM) was 7.9 ± 1.7 × 10^4 and the “Relative Colony Forming Efficiencies” value ([9]; PALA 60 μM) was 3.6 ± 0.6 × 10^4. For the same compound, the “Relative Colony Forming Efficiencies” value ([10]; PALA 20 μM) was 322.5 ± 36.4 × 10^4, the “Relative Colony Forming Efficiencies” value ([10]; PALA 30 μM) was 84.0 ± 30.0 × 10^4 and the “Relative Colony Forming Efficiencies” value ([10]; PALA 40 μM) was 43.3 ± 9.6 × 10^4. The “Relative Colony Forming Efficiencies” value ([10]; PALA 50 μM) was 23.2 ± 0.5 × 10^4, the “Relative Colony Forming Efficiencies” value ([10]; PALA 60 μM) was 11.1 ± 1.4 × 10^4 and the “Relative Colony Forming Efficiencies” value ([11]; PALA 10 μM) was 1230.0 ± 97.0 × 10^4. The “Relative Colony Forming Efficiencies” value ([11]; PALA 20 μM) was 55.1 ± 15.6 × 10^4, the “Relative Colony Forming Efficiencies” value ([11]; PALA 40 μM) was 20.2 ± 6.8 × 10^4 and the “Relative Colony Forming Efficiencies” value ([11]; PALA 50 μM) was 15.9 ± 4.0 × 10^4. The “Relative Colony Forming Efficiencies” value ([11]; PALA 60 μM) was 18.7 ± 5.3 × 10^4, the “Relative Colony Forming Efficiencies” value ([11]; PALA 80 μM) was 20.0 ± 4.9 × 10^4 and the “Relative Colony Forming Efficiencies” value ([12]; PALA 10 μM) was 17.9 ± 11.0 × 10^4. For the same compound, the “Relative Colony Forming Efficiencies” value ([12]; PALA 20 μM) was 0.39 ± 0.18 × 10^4, the “Relative Colony Forming Efficiencies” value ([12]; PALA 40 μM) was 0.35 ± 0.01 × 10^4 and the “Relative Colony Forming Efficiencies” value ([12]; PALA 50 μM) was 0.24 ± 0.14 × 10^4. For the same compound, the “Relative Colony Forming Efficiencies” value ([12]; PALA 60 μM) was 0.12 ± 0.05 × 10^4, the “Relative Colony Forming Efficiencies” value ([12]; PALA 80 μM) was 0.17 ± 0.08 × 10^4 and the “Relative Colony Forming Efficiencies” value ([13]; PALA 20 μM) was 233.3 ± 3.6 × 10^4. The “Relative Colony Forming Efficiencies” value ([13]; PALA 30 μM) was 78.8 ± 7.9 × 10^4, the “Relative Colony Forming Efficiencies” value ([13]; PALA 40 μM) was 46.5 ± 9.9 × 10^4 and the “Relative Colony Forming Efficiencies” value ([13]; PALA 50 μM) was 25.0 ± 6.8 × 10^4. The “Relative Colony Forming Efficiencies” value ([13]; PALA 60 μM) was 10.7 ± 3.0 × 10^4, the “Relative Colony Forming Efficiencies” value ([14]; PALA 10 μM) was 4619 ± 648 × 10^4 and the “Relative Colony Forming Efficiencies” value ([14]; PALA 20 μM) was 1220 ± 255 × 10^4. The “Relative Colony Forming Efficiencies” value ([14]; PALA 30 μM) was 450 ± 129 × 10^4, the “Relative Colony Forming Efficiencies” value ([14]; PALA 40 μM) was 271 ± 68 × 10^4 and the “Relative Colony Forming Efficiencies” value ([14]; PALA 50 μM) was 109 ± 23 × 10^4. The “Relative Colony Forming Efficiencies” value ([14]; PALA 60 μM) was 55.5 ± 13 × 10^4, the “Relative Colony Forming Efficiencies” value ([15]; PALA 10 μM) was 2083 ± 960 × 10^4 and the “Relative Colony Forming Efficiencies” value ([15]; PALA 20 μM) was 368 ± 154 × 10^4. For the same compound, the “Relative Colony Forming Efficiencies” value ([15]; PALA 30 μM) was 316 ± 171 × 10^4, the “Relative Colony Forming Efficiencies” value ([15]; PALA 40 μM) was 116 ± 54 × 10^4 and the “Relative Colony Forming Efficiencies” value ([15]; PALA 50 μM) was 41.7 ± 23 × 10^4. For the same compound, the “Relative Colony Forming Efficiencies” value ([15]; PALA 60 μM) was 13.2 ± 6.3 × 10^4.
